Experimental data: patent publication US10392354B2, “Highly selective anti-cancer agents targeting non-small cell lung cancer and other forms of cancer” (The University of Toledo, priority 2013, dated 2019)

Legend:
Assay type in all cases: cell-based
tubulin = assay: cell staining with antibodies to tubulin in NCI-H522 cells; settings: in interphase or mitosis
Procedure: (§1) FIGS. 3A-3C: The effect of compound 2 (10 μM) on tubulin and mitochondrial function. […] Arrowheads: two cells that have lost mitochondrial membrane potential; phase contrast indicates these are dead cells.
(§2) The effects of compound 2 on NCI-H522 cells, other cancer cells, and normal cell lines were evaluated. Compound 2 killed NCI-H522 cells at 10 μM. […] FIGS. 3A-3C show the effects of compound 2 on tubulin and mitochondrial function.

NCI-H522 cells = assay: lethality / cell viability of NCI-H522 cells; settings: for lethality / activity on NCI-H522 cell line: concentration not given
Procedure: FIGS. 5A-5C: The effect of compound 1f on NCI-H522 cells at 10 μM. […] Interval between images shown is 1 hour.
FIGS. 5A-5C show the effects of 1f on NCI-H522 cells at 10 μM.
The effects of compound 2 on NCI-H522 cells, other cancer cells, and normal cell lines were evaluated. […] FIGS. 3A-3C show the effects of compound 2 on tubulin and mitochondrial function.

mitochondrial potential = assay: TMRE staining of mitochondrial membrane potential in NCI-H522 cells; settings: during the death process
Procedure: as §1, §2

Structure (SMILES) | effects on tubulin (tubulin) | cell killing of NCI-H522 cells (NCI-H522 cells; 10 μM) | mitochondrial membrane potentials (mitochondrial potential) | lethality / activity on NCI-H522 cell line (NCI-H522 cells)
C#Cc1nc(C2=C(C)[C@@H](O)CC2)cs1 [Compound 2] | no overt effects | killed | intact until late in the death process | –
C#Cc1nc(C2=C(C)C(=O)CC2)cs1 [Compound 3, 3-(2-ethynylthiazol-4-yl)-2-methylcyclopent-2-enone] | – | – | – | lethal
C#Cc1nc(C2=C(C)C(=O)C(Cc3ccccc3)C2)cs1 (centres unmarked) [Compound 4, 5-benzyl-3-(2-ethynylthiazol-4-yl)-2-methylcyclopent-2-enone] | – | – | – | did not compromise
